Experiments:
Assay in all cases: relative viability (nuclei count vs DMSO), 5 days (fraction); higher = more cells survive
[1] = compound: COc1cc2nc(N3CCCN(C)CC3)nc(NC3CCN(Cc4ccccc4)CC3)c2cc1OC + C[C@]1(O)C[C@@H](c2nc(-c3ccc4ccc(-c5ccccc5)nc4c3)c3c(N)nccn32)C1 [Linsitinib] (partner 1 µM)
How it was run: (§1)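 A single step with final 0.05% Triton X-100, 1% formaldehyde and 1 ug/ml Hoechst fixed the cells and stained nuclei 5 days after treatment. Lung cancer cell lines in 1536-well plates had been treated by pin tool the day after seeding with one drug alone or a fixed anchor-drug dose plus five library-drug doses (not always all listed) in √10 steps, and nuclei were counted on 4× images. Relative viability is the ratio of nuclei in treated wells to nuclei in vehicle wells, taken as the median of duplicate plates.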

AZD6482 + Bortezomib = compound: Cc1cc([C@@H](C)Nc2ccccc2C(=O)O)c2nc(N3CCOCC3)cc(=O)n2c1 [AZD6482] + CC(C)C[C@H](NC(=O)[C@H](Cc1ccccc1)NC(=O)c1cnccn1)B(O)O [Bortezomib] (partner 0.002 µM)
How it was run: as §1

AZD6482 + Foretinib = compound: Cc1cc([C@@H](C)Nc2ccccc2C(=O)O)c2nc(N3CCOCC3)cc(=O)n2c1 [AZD6482] + COc1cc2c(Oc3ccc(NC(=O)C4(C(=O)Nc5ccc(F)cc5)CC4)cc3F)ccnc2cc1OCCCN1CCOCC1 [Foretinib] (partner 0.25 µM)
How it was run: as §1

AZD6482 + OSI-027 = compound: Cc1cc([C@@H](C)Nc2ccccc2C(=O)O)c2nc(N3CCOCC3)cc(=O)n2c1 [AZD6482] + COc1cccc2cc(-c3nc([C@H]4CC[C@H](C(=O)O)CC4)n4ncnc(N)c34)[nH]c12 [OSI-027] (partner 0.5 µM)
How it was run: as §1

Cell Line: UMC-11
- relative viability ([1]; first compound 0.2 µM): 1.03
- relative viability ([1]; first compound 0.6325 µM): 1.03
- relative viability ([1]; first compound 2 µM): 1.05
- relative viability ([1]; first compound 6.325 µM): 1.04
- relative viability (AZD6482 + Bortezomib; first compound 0.08 µM): 0.836
- relative viability (AZD6482 + Bortezomib; first compound 0.253 µM): 0.628
- relative viability (AZD6482 + Bortezomib; first compound 0.8 µM): 0.862
- relative viability (AZD6482 + Bortezomib; first compound 2.53 µM): 0.627
- relative viability (AZD6482 + Bortezomib; first compound 8 µM): 0.75
- relative viability (AZD6482 + Foretinib; first compound 0.08 µM): 1.01
- relative viability (AZD6482 + Foretinib; first compound 0.253 µM): 0.988
- relative viability (AZD6482 + Foretinib; first compound 0.8 µM): 0.997
- relative viability (AZD6482 + Foretinib; first compound 2.53 µM): 0.815
- relative viability (AZD6482 + Foretinib; first compound 8 µM): 1.13
- relative viability (AZD6482 + OSI-027; first compound 0.08 µM): 0.448
- relative viability (AZD6482 + OSI-027; first compound 0.253 µM): 0.464
- relative viability (AZD6482 + OSI-027; first compound 0.8 µM): 0.497
- relative viability (AZD6482 + OSI-027; first compound 2.53 µM): 0.459
- relative viability (AZD6482 + OSI-027; first compound 8 µM): 0.47
